Measured values as given in paper PMC6686047, “Efficient Inhibition of Human Papillomavirus Infection by L2 Minor Capsid-Derived Lipopeptide” (mBio, 2019).
pIC50: −log10 of the molar value. Bridge positions count the residues as written; N and C are the ends. Ends that are not written are not given here. Peptide text beside a SMILES is read from it. * marks the point of attachment. Stearoyl = CCCCCCCCCCCCCCCCCC(=O)*

Key:
[1] = tested on: HPV-GFP (HPV16 pseudovirus carrying GFP); format: cell-based; conditions: HeLa cells; ∼500 nM lipopeptide during inoculation; GFP at 36 hpi
[2] = tested on: HPV-Lucia (HPV16 pseudovirus carrying Lucia); conditions: for Relative anti-HPV activity: CHO-K1 cells, HPV-Lucia, Lucia activity at 36 hpi, potency compared with WT peptide (13-48, 100%) used at four concentrations; for pIC50: 4 h

Row | Compound | inhibition of HPV-GFP infection by L2N-CVIM lipopeptides (in words) [1] | Relative anti-HPV activity [2] [%] | pIC50 [2]
1 | 13-48CVIM: HPV16 L2N13-48 lipopeptide produced in 293T cells, CVIM motif isoprenylated (geranylgeranylation), released by furin | suppressed HPV-GFP infection | 100 | –
2 | 13-55CVIM: HPV16 L2N13-55 lipopeptide produced in 293T cells, CVIM motif isoprenylated, released by furin | suppressed HPV-GFP infection | 10 | –
3 | CCCCCCCCCCCCCCCCCC(=O)NCCCC[C@H](NC(=O)[C@H](CO)NC(=O)CNC(=O)[C@H](Cc1ccc(O)cc1)NC(=O)[C@H](CCC(N)=O)NC(=O)[C@H](CC(C)C)NC(=O)[C@@H](NC(=O)[C@H](CCC(N)=O)NC(=O)[C@H](CCCCN)NC(=O)[C@H](C)NC(=O)[C@@H](NC(=O)[C@@H](NC(=O)[C@H](CCCCN)NC(=O)CNC(=O)[C@H](CCC(=O)O)NC(=O)[C@@H](NC(=O)[C@H](CCCCN)NC(=O)[C@@H]1CCCN1C(=O)[C@@H](NC(=O)[C@@H](NC(=O)[C@H](CC(=O)O)NC(=O)[C@@H]1CCCN1C(=O)[C@@H]1CCCN1C(=O)[C@@H]1CSSC[C@H](NC(=O)[C@@H](NC(=O)[C@H](CCCCN)NC(=O)[C@H](Cc2ccc(O)cc2)NC(=O)[C@H](CC(C)C)NC(=O)[C@H](CCC(N)=O)NC(=O)[C@@H](NC(=O)[C@H](C)NC(=O)[C@H](CO)NC(=O)[C@H](C)N)[C@@H](C)O)[C@@H](C)O)C(=O)N[C@@H](CCCCN)C(=O)N[C@@H](CCC(N)=O)C(=O)N[C@@H](C)C(=O)NCC(=O)N[C@@H]([C@@H](C)O)C(=O)N1)[C@@H](C)CC)[C@@H](C)CC)C(C)C)[C@@H](C)O)[C@@H](C)CC)[C@@H](C)CC)C(=O)O [13-50st-D43K] (H-ASATQLYKTCKQAGTCPPDIIPKVEGKTIAKQILQYGSK(Stearoyl)-OH; disulfide 10-16) | – | – | 6.70
4 | CCCCCCCCCCCCCCCCCC(=O)NCCCC[C@H](NC(=O)[C@H](CO)NC(=O)CNC(=O)[C@H](Cc1ccc(O)cc1)NC(=O)[C@H](CCC(N)=O)NC(=O)[C@H](CC(C)C)NC(=O)[C@@H](NC(=O)[C@H](CCC(N)=O)NC(=O)[C@H](CC(=O)O)NC(=O)[C@H](C)NC(=O)[C@@H](NC(=O)[C@@H](NC(=O)[C@H](CCCCN)NC(=O)CNC(=O)[C@H](CCC(=O)O)NC(=O)[C@@H](NC(=O)[C@H](CCCCN)NC(=O)[C@@H]1CCCN1C(=O)[C@@H](NC(=O)[C@@H](NC(=O)[C@H](CC(=O)O)NC(=O)[C@@H]1CCCN1C(=O)[C@@H]1CCCN1C(=O)[C@@H]1CSSC[C@H](NC(=O)[C@@H](NC(=O)[C@H](CCCCN)NC(=O)[C@H](Cc2ccc(O)cc2)NC(=O)[C@H](CC(C)C)NC(=O)[C@H](CCC(N)=O)NC(=O)[C@@H](NC(=O)[C@H](C)NC(=O)[C@H](CO)NC(=O)[C@H](C)N)[C@@H](C)O)[C@@H](C)O)C(=O)N[C@@H](CCCCN)C(=O)N[C@@H](CCC(N)=O)C(=O)N[C@@H](C)C(=O)NCC(=O)N[C@@H]([C@@H](C)O)C(=O)N1)[C@@H](C)CC)[C@@H](C)CC)C(C)C)[C@@H](C)O)[C@@H](C)CC)[C@@H](C)CC)C(=O)O [13-50st] (H-ASATQLYKTCKQAGTCPPDIIPKVEGKTIADQILQYGSK(Stearoyl)-OH; disulfide 10-16) | – | – | 7.52
5 | ASATQLYKTCKQAGTCPPDIIPKVEGKTIADQILQYGSMGVFF (disulfide 10-16) [13-55-no st] | – | – | < 6.00
6 | ASATQLYKTCKQAGTCPPDIIPKVEGKTIADQILQYGSMGVFFK(Stearoyl) (disulfide 10-16) [13-55st] | – | – | 7.00
7 | SVIM: L2N13-48 peptide with cysteine-to-serine mutation in the CVIM motif, negative control | completely abolished their ability to inhibit HPV-GFP infection | 0 | –
8 | pZeo5-tSA-Furin-13-44GT-CVIM: HPV16 L2N13-48 lipopeptide with deletion of ILQY | – | < 0.8 | –
9 | pZeo5-tSA-Furin-13-46-CVIM: HPV16 L2N13-46 lipopeptide with deletion of QYGT | – | 5 | –
10 | pZeo5-tSA-Furin-13-46GT-CVIM: HPV16 L2N lipopeptide with L2N13-46 | – | 200 | –
11 | pZeo5-tSA-Furin-13-48GT-CVIM-D31K: HPV16 L2N13-48 lipopeptide with D31K | – | 20 | –
12 | pZeo5-tSA-Furin-13-48GT-CVIM-QQKK: HPV16 L2N13-48 lipopeptide with double Q44K and Q47K | – | 150 | –
13 | pZeo5-tSA-Furin-13-48GT-CVIM-d42: HPV16 L2N13-48 lipopeptide with deletion of A42 (ASATQLYKTCKQAGTCPPDIIPKVEGKTIEQILQY; not fully specified (C-terminus); cysteine pairing not given here; also: CVIM isoprenylation motif lipopeptide; UniProt P03107 13-48, looked up, variant A42*) | – | < 1 | –
